Measured values as given in patent US20210255193A1, “LYSINE REACTIVE PROBES AND USES THEREOF” (The Scripps Research Institute, priority 2017, published 2021).

What was measured:
Assay in all cases: direct labeling of recombinantly expressed proteins by gel-based ABPP (WT vs lysine mutant)
Assay type in all cases: binding
TTR = target: T1, TTR (Homo sapiens, UniProt P02766); conditions: TTR K35, KA mutant; 1 μM TTR in MDA-MB-231 lysate
T1 construct: made in house; host or cells: E. coli
Text: (§1) Subcloning and mutagenesis. Unless noted below, genes were amplified from cDNA prepared from low passage HEK 293T cells using the Ribozol RNA extraction reagent (Amresco) and the iScript Reverse Transcription Supermix kit (Bio-Rad). For the following proteins cDNA clones were used for amplification instead: PFKP (5180268, Dharmacon), HK1 (BC008730, transomic), SIN3A (BC137098, transomic), G6PD (BC000337, transomic) and TGIF1 (BC031268, transomic). Mouse CARM1 in pFLAG-CMV-6c was a kind gift from the Mowen lab (TSRI). NUDT2 was obtained as synthesized gene (IDT). DNA was amplified with custom forward and reverse primers using phusion polymerase (NEB, M0530S), digested with the indicated restriction enzyme and ligated into pFLAG-CMV-6c or pRK5 with the appropriate affinity tag. Lysine mutants were generated using QuikChange site-directed mutagenesis using Phusion® High-Fidelity DNA Polymerase and primers containing the desired mutations and their respective complements. The cloning of TTR and its K35A mutant has been described in Choi et al., “Chemoselective small molecules that covalently modify one lysine in a non-enzyme protein in plasma,” Nat. Chem. Biol. 6, 133-139 (2010). TTR was expressed in E. coli and purified as described. For gel-based experiments 1 μM TTR was added into 1 mg ml^−1 soluble MDA-MB-231 lysate.
(§2) Direct labeling of recombinantly expressed proteins by gel-based ABPP. 50 μL of soluble HEK 293T proteome (1 mg ml^−1) expressing the respective protein (WT or KR mutant) or transfected with an empty vector were treated with 10 μM of the indicated probe for 1 h at room temperature. The samples were analyzed as described in the previous section. For quantification of relative labeling of the different protein variants, the intensity of labeling was determined by quantifying the integrated optical intensity of the bands using ImageLab 5.2.1 software (BioRad).

PFKM = target: T2, PFKM (Homo sapiens, UniProt P08237); conditions: PFKM K678, KR mutant; 10 μM probe, 1 h
T2 construct: expressed in transfected cells; host or cells: HEK 293T
T2 sequence (P08237 1-780): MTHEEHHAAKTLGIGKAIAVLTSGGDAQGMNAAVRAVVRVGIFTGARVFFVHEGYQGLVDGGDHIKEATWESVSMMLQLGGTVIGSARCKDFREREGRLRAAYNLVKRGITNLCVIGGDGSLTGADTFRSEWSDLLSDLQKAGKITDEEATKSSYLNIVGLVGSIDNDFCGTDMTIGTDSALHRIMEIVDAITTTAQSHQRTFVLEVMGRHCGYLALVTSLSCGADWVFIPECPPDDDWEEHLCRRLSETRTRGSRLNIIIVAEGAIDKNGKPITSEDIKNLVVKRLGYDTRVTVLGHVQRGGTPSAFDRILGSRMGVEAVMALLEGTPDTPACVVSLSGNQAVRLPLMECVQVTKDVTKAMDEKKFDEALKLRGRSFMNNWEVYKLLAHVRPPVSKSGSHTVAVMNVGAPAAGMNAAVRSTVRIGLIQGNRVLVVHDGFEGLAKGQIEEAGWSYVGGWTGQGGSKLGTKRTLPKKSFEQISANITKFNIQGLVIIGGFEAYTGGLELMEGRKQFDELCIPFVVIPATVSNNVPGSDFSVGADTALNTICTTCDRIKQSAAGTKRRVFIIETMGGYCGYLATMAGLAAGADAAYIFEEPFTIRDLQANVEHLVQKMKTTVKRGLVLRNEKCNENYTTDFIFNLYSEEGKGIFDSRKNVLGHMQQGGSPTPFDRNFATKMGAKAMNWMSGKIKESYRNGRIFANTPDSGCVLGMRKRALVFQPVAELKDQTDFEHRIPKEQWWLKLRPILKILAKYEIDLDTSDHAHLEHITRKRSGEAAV
Text: as §1
(§3) Recombinant expression of proteins by transient transfection. HEK 293T cells were grown to 50% confluency in 10 ml DMEM supplemented with 10% fetal bovine serum (FBS), penicillin, streptomycin and glutamine in 10 cm tissue culture dishes. 3 μg of DNA was diluted in 500 μL DMEM and 30 μL of PEI (MW 40,000, 1 mg ml^−1, Polysciences) were added. The mixture was incubated at room temperature for 30 min and added dropwise to the cells. Cells were grown for 48 h at 37° C. with 5% CO2. Cells were washed with cold PBS, scraped with cold PBS and cell pellets were isolated by centrifugation (1,400 g, 3 min, 4° C.), and stored at −80° C. until use. Cell pellets were resuspended in PBS, lysed by sonication and fractionated (100,000 g, 45 min) to yield soluble and membrane fractions. The soluble fraction was adjusted to a final protein concentration of 1 mg ml^−1 for gel-based ABPP experiments.
as §2

HDHD3 = target: T3, HDHD3 (Homo sapiens, UniProt Q9BSH5); conditions: HDHD3 K15, KR mutant; 10 μM probe, 1 h
T3 construct: Flag; expressed in transfected cells; host or cells: HEK 293T
T3 sequence (Q9BSH5 1-251): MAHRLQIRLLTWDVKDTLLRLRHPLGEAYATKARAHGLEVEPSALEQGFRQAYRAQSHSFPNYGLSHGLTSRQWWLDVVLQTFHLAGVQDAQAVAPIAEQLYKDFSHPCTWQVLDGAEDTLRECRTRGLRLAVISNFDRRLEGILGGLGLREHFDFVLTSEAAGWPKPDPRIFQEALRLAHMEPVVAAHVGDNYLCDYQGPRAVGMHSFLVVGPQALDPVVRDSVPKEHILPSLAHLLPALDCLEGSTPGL
Text: as §1, §3, §2

SMILES	labeling of WT vs mutant protein by probe (TTR)	labeling of WT vs mutant protein by probe (PFKM)	labeling of WT vs mutant protein by probe (HDHD3)
C#CCCC(=O)Oc1c(F)c(F)c(S(=O)(=O)[O-])c(F)c1F.[Na+] [probe 1, reference compound]	HD (the WT labeled more than the mutant (>4x difference quantified))	HD (the WT labeled more than the mutant (>4x difference quantified))	HD (the WT labeled more than the mutant (>4x difference quantified))
C#CCCC(=O)Oc1c(F)c(F)c(F)c(F)c1F [probe 6, Pentafluorophenyl 4-pentynoate]	HD (the WT labeled more than the mutant (>4x difference quantified))	ND (the WT did not label more than the mutant (<2x difference quantified))	HD (the WT labeled more than the mutant (>4x difference quantified))
C#Cc1ccc(C(=O)Oc2ccccc2[N+](=O)[O-])cc1 [probe 10, 2-Nitrophenyl 4-ethynylbenzoate]	HD (the WT labeled more than the mutant (>4x difference quantified))	PD (the WT labeled more than the mutant (>2x difference quantified))	HD (the WT labeled more than the mutant (>4x difference quantified))
C#Cc1ccc(C(=O)Oc2c(F)c(F)cc(F)c2F)cc1 [probe 12, 2,3,5,6-Tetrafluorophenyl 4-ethynylbenzoate]	HD (the WT labeled more than the mutant (>4x difference quantified))	PD (the WT labeled more than the mutant (>2x difference quantified))	HD (the WT labeled more than the mutant (>4x difference quantified))
C#Cc1ccc(C(=O)Oc2c(F)c(F)c(F)c(F)c2F)cc1 [probe 13, Pentafluorophenyl 4-ethynylbenzoate]	HD (the WT labeled more than the mutant (>4x difference quantified))	PD (the WT labeled more than the mutant (>2x difference quantified))	HD (the WT labeled more than the mutant (>4x difference quantified))
Cc1cc(C)n2c1C=C1C=CC(CCC(=O)Oc3c(F)c(F)c(S(=O)(=O)[O-])c(F)c3F)=[N+]1[B-]2(F)F.[Na+] [probe 18, reference compound]	HD (the WT labeled more than the mutant (>4x difference quantified))	PD (the WT labeled more than the mutant (>2x difference quantified))	HD (the WT labeled more than the mutant (>4x difference quantified))
